Measurements from article PMC4344499 (2015).

Tested on: Z33 G4 (radiolabeled) (DNA, G4) AAAGTGATGGTGGTGGGGGAAGGATTTTCGAAC
Experiment: EMSA, displacement of bound DHX36 protein
Details: 100 mM KCl, 10 mM NaCl, 3.3 mM MgCl2, 10 mM EDTA; K-Res buffer pH 7.8, 37 °C, no ATP; DHX36 (4 nM) displaced from 4 nM G4; poly(dI:dC) present

IC50: 33 nM
SMILES: NCCOc1cc(C(=O)Nc2cc(OCCN)c3ccccc3n2)nc(C(=O)Nc2cc(OCCN)c3ccccc3n2)c1
